# Results as given in patent US5827837A, “Polyanion anti-inflammatory agents” (priority 1996, dated 1998).
# Entries after “also recorded” stand apart in the source; their conditions may differ.
# Columns and labels:
# [1] = molecular target: T1, E-selectin-lg fusion protein (Homo sapiens, UniProt P16581); assay: Competition ELISA: binding of E-selectin-Ig to immobilized BSA-sLe^x; details: BSA-sLe^x competition ELISA
# T1 construct: Each selectin-lg contains the lectin domain, epidermal growth factor domain, and one (L-selectin-lg), two (P-selectin-lg) or six (E-selectin-lg) complement regulatory repeats; made in house
# T1 sequence (P16581 with tags, fused parts or gaps limits assumed): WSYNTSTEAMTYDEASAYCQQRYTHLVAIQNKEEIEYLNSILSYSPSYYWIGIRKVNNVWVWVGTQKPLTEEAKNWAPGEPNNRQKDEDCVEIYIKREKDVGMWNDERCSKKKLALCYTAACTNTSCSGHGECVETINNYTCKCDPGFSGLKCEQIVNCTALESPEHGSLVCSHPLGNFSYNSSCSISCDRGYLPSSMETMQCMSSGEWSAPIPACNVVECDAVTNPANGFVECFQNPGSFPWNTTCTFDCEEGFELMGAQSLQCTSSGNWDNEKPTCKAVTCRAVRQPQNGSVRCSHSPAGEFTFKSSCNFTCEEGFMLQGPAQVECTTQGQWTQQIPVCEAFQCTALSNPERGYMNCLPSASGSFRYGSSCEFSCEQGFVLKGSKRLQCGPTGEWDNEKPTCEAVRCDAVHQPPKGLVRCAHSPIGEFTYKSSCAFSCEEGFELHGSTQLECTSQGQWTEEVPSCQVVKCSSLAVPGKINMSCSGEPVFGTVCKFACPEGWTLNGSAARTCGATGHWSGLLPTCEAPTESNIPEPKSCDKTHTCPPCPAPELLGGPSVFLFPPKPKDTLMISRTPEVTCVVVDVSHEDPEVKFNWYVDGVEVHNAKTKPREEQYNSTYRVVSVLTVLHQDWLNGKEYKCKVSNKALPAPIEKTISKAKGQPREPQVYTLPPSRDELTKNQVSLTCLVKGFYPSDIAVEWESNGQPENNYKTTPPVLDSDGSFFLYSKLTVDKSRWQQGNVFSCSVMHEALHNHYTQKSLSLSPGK
# Excerpt: Selectin-lg fusion proteins are recombinant chimeric molecules containing extracellular regions of selectins coupled to the hinge, CH2, and CH3 regions of human IgG1 (Aruffo, A., et al., Cell, 67:35, 1991; Walz, G., et al., Science, 250:1132, 1990). Each selectin-lg contains the lectin domain, epidermal growth factor domain, and one (L-selectin-lg), two (P-selectin-lg) or six (E-selectin-lg) complement regulatory repeats of the parent molecules. DNAs encoding selectin-Ig inserted in pCDM7 allowed transient expression of recombinant proteins in COS cells as previously described (Seed, B., et al., Proc. Natl. Acad. Sci., U.S.A., 84:3365, 1987; Aruffo, A., Current Protocols In Molecular Biology, eds. Ausubel, F. M., et al, 16:13.1, Greene Publishing Associates and Wiley-lnterscience, New York, N.Y., 1992). These DNAs were also ligated into pNUT (Palmiter, R. D., et al, Cell, 50:435, 1987) for amplification and stable expression in BHK cells. The fusion proteins were affinity purified from culture media using protein A (Pierce Chemical Company, Rockford, Ill.) or protein G (Pharmacia, Piscataway, N.J.) Sepharose, as previously described (Aruffo, A., et al., Cell, 67:35, 1991; Aruffo, A., Current Protocols In Molecular Biology, eds. Ausubel, F. M., et al, supra, 1992). Competition binding ELISAs using P- and E-selectin-lg were performed essentially as described (Nelson, R. M., et al., J. Clin. Invest., 91:1157, 1993), except that the assay buffer was 20 mM HEPES pH 7.4, 150 mM NaCl, 2 mM CaCl2, and 0.25 mM thimerosal, containing 10 mg/ml BSA, protease-free, (Miles Inc., Kankakee, Ill.). Selectin concentrations were from 10 to 30 nM. […] To increase L-selectin binding, an assay similar to that previously described was used (Foxall, C., et al., J. Cell Biol., 117:895, 1992), in which the L-selectin-lg (10-20 nM) was allowed to form aggregates with HRP-conjugated anti-lg antibody for 30 minutes prior to addition of inositols and incubation on the BSA-sLe^x -coated plate. IC50 values were calculated by fitting binding data to the equation: fraction of maximal binding=IC50 […] using nonlinear least squares analysis software (Origin, Microcal Inc, Northampton, Mass.). InsP6 (dodecasodium salt), InsS6 (hexapotassium salt), myo-inositol 1 monophosphate (cyclohexylammonium salt), and myo-inositol were from Sigma Chemical Company (St. Louis, Mo.). Stock solutions were prepared daily in 0.9% NaCl and sterilized by 0.22 μm filtration. InsP6 solutions were adjusted at pH 7.4 with HCl.
# L-, P-, or E-selectin-lg fusion proteins were incubated for 2-3 hours on microtiter plates coated with the neoglycoprotein BSA-sLe^x, the plates washed, and bound selectin-lg was detected using a peroxidase-conjugated antibody directed against the lg portion and a chromogenic substrate. To determine blocking activity, solution-phase lnsP6 (.circle-solid.), InsS6 (.largecircle.), or inositol (.box-solid.) at the indicated concentrations were added to the solutions containing selectin-Ig fusion proteins prior to transfer to microtiter plates (competition ELISA).
# E-selectin (E-COS) = assay: LS 180 cell adhesion to COS cells transfected with full length E-selectin (E-COS); type: cell-based; details: 0.5 mM
# Protocol: The effect of inositols on selectin-dependent cell adhesion was assessed using several in vitro assay systems. In the first, a colon cancer cell line, LS 180, was chosen because it binds to all three selecting.
# COS-1 cells were transfected as described (Seed, B., et al., Proc. Natl. Acad. Sci., U.S.A., 84:3365, 1987; Aruffo, A., Current Protocols In Molecular Biology, eds. supra, 1992) with pCDM7/pCDM8 expression vectors containing the full-length E-, P- and L-selectin cDNA. Transfected COS-1 cells were seeded on gelatin coated coverslips.
# [2] = test system: PMN within the peritoneal cavity; assay: Thioglycollate-induced peritoneal inflammation, PMN accumulation; type: in vivo, mice (Balb/c); details: mice
# [3] = test system: PMN within the peritoneal cavity; assay: Zymosan-induced peritoneal inflammation, PMN accumulation; type: in vivo, mice (Balb/c); details: mice
# Protocol: Mice (Balb/c males, 4-5 weeks old, 20-24 grams) were injected i.p. with 1 ml of 3% thioglycollate broth (lot #622462, Clinical Standard Laboratories, Inc., Rancho Dominguez, Calif.) left panel, or 0.5 mg of zymosan (Sigma) in 1 ml of sterile, pyrogen-free saline (Abbott Laboratories, North Chicago, Ill.), (FIG. 4, right panel). Control animals were injected i.p. with 1 ml of sterile pyrogen-free saline. After 40 and 80 min the animals received i.v. injections of 0.2 ml of sterile saline with or without InsP6 (total of 80 μmol/kg) or inositol (400 μmol/kg). Mice were sacrificed at 120 min and PMN within the peritoneal cavity were collected by lavage with 10 ml of ice-cold PBS containing 10 U/ml of heparin. After red blood cell lysis, the cells were counted in a hemocytometer (2 separate counts per sample, in triplicate). The percentage of PMN was assessed by counting cytospin preparations (two counts per slide, 300 cells per count) stained with Dif-Quick stain (Baxter, McGaw Park, Ill). Data are expressed as the mean ±s.d. of three separate experiments, with 5-6 animals per group in each experiment except for the group injected with saline i.p. that was constituted by 2 animal per experiment. […]
Structure (SMILES),inhibition of E-selectin-Ig binding [1],inhibition of LS 180 cell adhesion to E-COS (E-selectin (E-COS)) [%],"inhibition of PMN accumulation, single subcutaneous injection ([2]; 40-100 μmol/kg s.c. 3 min after thioglycollate)","reduction in PMN recovered from the peritoneal cavity ([2]; i.v. at 40 and 80 min, total 80 μmol/kg, PMN at 120 min, 3 experiments) [%]",effect in zymosan-induced peritoneal inflammation ([3]; relative to thioglycollate model),"inhibition of PMN accumulation, thioglycollate model ([2]; 400 μmol/kg, 1 experiment) [%]","inhibition of PMN accumulation, zymosan model ([3]; 400 μmol/kg, 1 experiment) [%]"
"O=P(O)(O)O[C@H]1[C@H](OP(=O)(O)O)[C@@H](OP(=O)(O)O)[C@H](OP(=O)(O)O)[C@@H](OP(=O)(O)O)[C@H]1OP(=O)(O)O [InsP6, myo-inositol hexakisphosphate]",failed to inhibit the binding of E-selectin-lg at concentrations up to 5 mM; also recorded: did not block E-selectin-lg binding,< 5,46-59%,58±3,equally effective,–,–
"O=S(=O)(O)O[C@H]1[C@H](OS(=O)(=O)O)[C@@H](OS(=O)(=O)O)[C@H](OS(=O)(=O)O)[C@@H](OS(=O)(=O)O)[C@H]1OS(=O)(=O)O [InsS6, myo-inositol hexakissulfate]",failed to inhibit the binding of E-selectin-lg at concentrations up to 5 mM,–,–,–,–,33±13,31±11
